How the values were obtained:
dog renal Na,K-ATPase = target: T1, dog renal Na,K-ATPase (Canis lupus familiaris, UniProt P50997); experiment: Inhibition of dog renal Na,K-ATPase activity (32P-ATP release); format: biochemical
T1 construct: incubated with 0.3 μg of purified dog kidney enzyme; from tissue; host or cells: dog kidney outer medulla
Description: Kidneys were sliced and the outer medulla was dissected, pooled and suspended (1 g/10 ml) in a sucrose-histidine solution, containing 250 mM sucrose, 30 mM histidine and 5 mM EDTA, pH 7.2 and homogenized. […] The pellet was suspended in the sucrose-histidine buffer and incubated for 20 min with a sodium-dodecyl-sulphate (SDS) solution dissolved in a gradient buffer, containing 25 mM imidazole and 1 mM EDTA, pH 7.5. […] The pellet was suspended in the gradient buffer.
Increasing concentrations of the standard ouabain, or tested compound, were incubated with 0.3 μg of purified dog kidney enzyme for 10 min at 37° C. in 120 μl final volume of a medium, containing 140 mM NaCl, 3 mM MgCl2, 50 mM Hepes-Tris, 3 mM ATP, pH 7.5. […] The inhibitory activity was expressed as percent of the control samples carried out in the absence of ouabain or tested compound.

guinea pig = experiment: Haemodynamics: inotropic and lethal dose in guinea pig; format: in vivo
Description: Guinea-pigs (400-450 g) were anaesthetized with urethane (1.5 g/kg ip). A microtip pressure transducer was introduced into the left ventricle through the right carotid artery to measure ventricular pressure (LVP); the transducer was coupled with a transducer amplifier. Recordings were fed to a polygraph and analyzed. A polythene cannula was inserted into a jugular vein for drug infusion. After a stabilization period, the test substance was injected at the rate of 0.16 ml/min for 90 min (Micheletti R et al. J Pharmacol Exp Ther 2002; 303:592-600).
The following parameters were obtained: heart rate (HR), left ventricular pressure (LVP), maximal velocity of pressure rise (+dP/dtmax) and decay (−dP/dtmax), ECG. For inotropy, the time elapsed until +dP/dtmax increased by 80% was identified in order to determine the ED80 (dose increasing basal +dP/dtmax by 80%). The time to the maximum increase in +dP/dtmax was also identified to determine the maximum effective dose, EDmax. Lusitropy was characterized by the dose inducing the maximum decrease in −dP/dtmax, (EDmax). As indexes of toxicity, the dose administered until the onset of arrhythmias and the dose inducing death (LD) were calculated. The safety ratio for the tested compound was also calculated as the ratio between LD and ED80.

[1] = test system: mouse (Albino Swiss CD-1); conditions: i.v., data from literature; cited from earlier work
SERCA2a = target: T2, SERCA2a (Canis lupus familiaris, UniProt O46674); conditions: literature (Rocchetti 2005; Ferrandi 2013); cited from earlier work
T2 construct: pre-incubated with 2 μg of microsomes; from tissue; host or cells: dog heart left ventricle, SR microsomes
T2 sequence (O46674 whole entry): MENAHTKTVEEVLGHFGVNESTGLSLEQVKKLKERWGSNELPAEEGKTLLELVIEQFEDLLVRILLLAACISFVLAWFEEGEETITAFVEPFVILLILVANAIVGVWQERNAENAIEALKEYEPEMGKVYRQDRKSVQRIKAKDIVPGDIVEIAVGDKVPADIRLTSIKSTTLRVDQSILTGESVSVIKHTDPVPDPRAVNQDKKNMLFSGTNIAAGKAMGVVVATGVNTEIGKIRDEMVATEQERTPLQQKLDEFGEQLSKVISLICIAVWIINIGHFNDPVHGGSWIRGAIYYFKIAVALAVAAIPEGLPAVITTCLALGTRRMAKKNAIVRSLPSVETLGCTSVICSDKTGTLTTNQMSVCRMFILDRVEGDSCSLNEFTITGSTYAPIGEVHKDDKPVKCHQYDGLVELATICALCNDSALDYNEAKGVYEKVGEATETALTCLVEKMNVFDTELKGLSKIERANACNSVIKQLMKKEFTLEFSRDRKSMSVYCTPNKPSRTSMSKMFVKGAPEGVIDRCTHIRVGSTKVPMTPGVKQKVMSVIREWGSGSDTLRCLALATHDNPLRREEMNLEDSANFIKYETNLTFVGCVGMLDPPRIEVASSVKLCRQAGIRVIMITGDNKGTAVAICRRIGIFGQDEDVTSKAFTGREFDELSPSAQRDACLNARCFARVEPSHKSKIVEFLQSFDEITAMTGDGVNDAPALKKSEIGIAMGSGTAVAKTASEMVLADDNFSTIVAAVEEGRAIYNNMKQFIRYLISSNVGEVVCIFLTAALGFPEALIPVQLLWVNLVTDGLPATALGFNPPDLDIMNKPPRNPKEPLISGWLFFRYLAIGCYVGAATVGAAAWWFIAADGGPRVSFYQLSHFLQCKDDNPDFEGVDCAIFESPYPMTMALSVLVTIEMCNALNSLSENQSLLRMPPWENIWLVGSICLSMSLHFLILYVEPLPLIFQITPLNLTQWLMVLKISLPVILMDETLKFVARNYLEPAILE

[2] = literature (Packer 2016, 2018); cited from earlier work
STZ diabetic rats = experiment: Haemodynamics in streptozotocin diabetic rats (echocardiography); format: in vivo, rat; conditions: 20 mg/kg os, after treatment, mean ± SD, n = 12
Description: Sprague Dawley male rats (150-175 g) were made diabetic by a single injection into the tail vein of a solution of streptozotocin (STZ, 50 mg/kg, Sigma-Aldrich), freshly prepared in 0.1 M sodium citrate buffer, pH 4.5. Control rats received citrate buffer. Fasting glycaemia was measured after 1 week and rats with values >400 mg/dl were considered diabetic.
Eight-nine weeks after STZ injection, rats were submitted to transthoracic echocardiographic and Doppler evaluation performed under pentobarbital anesthesia. Two-dimensionally guided M-mode recordings were used to obtain short-axis measurements of left ventricular end-diastolic diameter (LVEDD), left ventricular end-systolic diameter (LVESD), posterior (PW) and septal (SW) diastolic wall thickness according to the American Society of Echocardiography guidelines (Lang R M et al. Eur J Echocardiography 2006; 7:79-108). Fractional shortening was calculated as FS=(LVEDD-LVESD)/LVEDD. Relative wall thickness was calculated as PWTd+IVSTd/LVEDD.
Mitral inflow was measured by pulsed Doppler at the tips of mitral leaflets from an apical 4-chamber view to obtain early and late filling velocities (E, A) and deceleration time of early filling velocity (DT). The deceleration slope was calculated as E/DT ratio. The mitral deceleration index was calculated as DT/E ratio.
Tissue Doppler Imaging (TDI) was evaluated from the apical 4-chamber view to record septal mitral annular movements, i.e., peak myocardial systolic (s′) and early and late diastolic velocity (e′ and a′).
Compound CVie 101 was orally administered to STZ injected rats at the dose of 20 mg/kg and echocardiographic parameters were measured after 1 h.

C[C@H]1O[C@@H](O[C@H]2[C@@H](O)C[C@H](O[C@H]3[C@@H](O)C[C@H](O[C@H]4CC[C@@]5(C)[C@H](CC[C@@H]6[C@@H]5C[C@@H](O)[C@]5(C)[C@@H](C7=CC(=O)OC7)CC[C@]65O)C4)O[C@@H]3C)O[C@@H]2C)C[C@H](O)[C@@H]1O [Digoxin, reference compound]
IC50 (dog renal Na,K-ATPase): 300 nM | ED80 (guinea pig; guinea pig, in vivo): 0.69 mg/kg | Lethal dose (guinea pig; i.v. infusion […]): 1.20 mg/kg | LD50 [1]: 7.7 mg/kg | SERCA2a activity (SERCA2a): failed to stimulate | serum concentration ranges at which digoxin displays its beneficial effects [2]: 0.5 to 0.7 ng/mL | serum threshold level above which increased risk of death, mainly due to arrhythmias, has been observed [2]: 0.9 ng/mL | A (late filling velocity of mitral inflow) (STZ diabetic rats): 0.92 ± 0.1 m/s | A′ (TDI late relaxation velocity) (STZ diabetic rats): 35.8 ± 5 cm/s | CO (cardiac output) (STZ diabetic rats): 246.8 ± 72 mL/min | DT (deceleration time of E wave) (STZ diabetic rats): 39.2 ± 9.34 ms | E (early filling velocity of mitral inflow) (STZ diabetic rats): 1.02 ± 0.13 m/s | E/DT (deceleration slope) (STZ diabetic rats): 27.9 ± 9.8 m/s2 | E′ (TDI early relaxation velocity) (STZ diabetic rats): 23.7 ± 1.35 cm/s | FS (fractional shortening) (STZ diabetic rats): 47.2 ± 3.24 % | HR (heart rate) (STZ diabetic rats): 308 ± 39 beat/min | SV (stroke volume) (STZ diabetic rats): 0.80 ± 0.19 ml/beat | S′ (TDI contraction velocity) (STZ diabetic rats): 26.7 ± 2.77 cm/s

— patent US11730746B2, “17beta-heterocyclyl-digitalis like compounds for the treatment of heart failure” (priority 2018, dated 2023)
